In patent publication US10526389B2, “Peptides and combinations of peptides for use in immunotherapy against lung cancer, including NSCLC and other cancers” (Immatics Biotechnologies GmbH, priority 2015, dated 2020):

Tested on: CD8+ T cells
Assay: In vitro immunogenicity of HLA-A*02 peptides (CD8+ T-cell priming with aAPCs, multimer staining)
Type: cell-based, human
Text: In order to obtain information regarding the immunogenicity of the TUMAPs of the present invention, the inventors performed investigations using an in vitro T-cell priming assay based on repeated stimulations of CD8+ T cells with artificial antigen presenting cells (aAPCs) loaded with peptide/MHC complexes and anti-CD28 antibody.
In order to perform in vitro stimulations by artificial antigen presenting cells loaded with peptide-MHC complex (pMHC) and anti-CD28 antibody, the inventors first isolated CD8+ T cells from fresh HLA-A*02 leukapheresis products via positive selection using CD8 microbeads (Miltenyi Biotec, Bergisch-Gladbach, Germany) of healthy donors obtained from the University clinics Mannheim, Germany, after informed consent.
PBMCs and isolated CD8+ lymphocytes were incubated in T-cell medium (TCM) until use consisting of RPMI-Glutamax (Invitrogen, Karlsruhe, Germany) supplemented with 10% heat inactivated human AB serum (PAN-Biotech, Aidenbach, Germany), 100 U/ml Penicillin/100 μg/ml Streptomycin (Cambrex, Cologne, Germany), 1 mM sodium pyruvate (CC Pro, Oberdorla, Germany), 20 μg/ml Gentamycin (Cambrex). 2.5 ng/ml IL-7 (PromoCell, Heidelberg, Germany) and 10 U/ml IL-2 (Novartis Pharma, Nurnberg, Germany) were also added to the TCM at this step.
Generation of pMHC/anti-CD28 coated beads, T-cell stimulations and readout was performed in a highly defined in vitro system using four different pMHC molecules per stimulation condition and 8 different pMHC molecules per readout condition.
The purified co-stimulatory mouse IgG2a anti human CD28 Ab 9.3 (Jung et al., 1987) was chemically biotinylated using Sulfo-N-hydroxysuccinimidobiotin as recommended by the manufacturer (Perbio, Bonn, Germany). Beads used were 5.6 μm diameter streptavidin coated polystyrene particles (Bangs Laboratories, Illinois, USA).
800.000 beads/200 μl were coated in 96-well plates in the presence of 4×12.5 ng different biotin-pMHC, washed and 600 ng biotin anti-CD28 were added subsequently in a volume of 200 μl. Stimulations were initiated in 96-well plates by co-incubating 1×10^6 CD8+ T cells with 2×10^5 washed coated beads in 200 μl TCM supplemented with 5 ng/ml IL-12 (PromoCell) for 3 days at 37° C. Half of the medium was then exchanged by fresh TCM supplemented with 80 U/ml IL-2 and incubating was continued for 4 days at 37° C. This stimulation cycle was performed for a total of three times. For the pMHC multimer readout using 8 different pMHC molecules per condition, a two-dimensional combinatorial coding approach was used as previously described (Andersen et al., 2012) with minor modifications encompassing coupling to 5 different fluorochromes. Finally, multimeric analyses were performed by staining the cells with Live/dead near IR dye (Invitrogen, Karlsruhe, Germany), CD8-FITC antibody clone SK1 (BD, Heidelberg, Germany) and fluorescent pMHC multimers. For analysis, a BD LSRII SORP cytometer equipped with appropriate lasers and filters was used. Peptide specific cells were calculated as percentage of total CD8+ cells. Evaluation of multimeric analysis was done using the FlowJo software (Tree Star, Oregon, USA). In vitro priming of specific multimer+CD8+ lymphocytes was detected by comparing to negative control stimulations.

Substance	in vitro immunogenicity: donors	in vitro immunogenicity: wells
ABCA13-001 (ILFEINPKL)	++++ (>= 70% = ++++)	+ (<20% = +)
ABCA13-002 (ALDENLHQL)	+++ (50%-69% = +++)	+ (<20% = +)
ADAM8-001 (KLLTEVHAA; listed as Homo sapiens)	++++ (>= 70% = ++++)	+ (<20% = +)
AIVDKVPSV (listed as Homo sapiens) [SEQ ID No. 143]	+++ (50%-69% = +++)	+ (<20% = +)
ALLNILSEV (listed as Homo sapiens) [SEQ ID No. 8]	++++ (>= 70% = ++++)	++ (20%-49% = ++)
ALTSTLISV (listed as Homo sapiens) [SEQ ID No. 5]	++++ (>= 70% = ++++)	+ (<20% = +)
ALVDHTPYL (listed as Homo sapiens) [SEQ ID No. 136]	++++ (>= 70% = ++++)	+ (<20% = +)
ALVQDLAKA (listed as Homo sapiens) [SEQ ID No. 131]	++++ (>= 70% = ++++)	++ (20%-49% = ++)
ATP-001 (SLHFLILYV; listed as Homo sapiens)	++++ (>= 70% = ++++)	++++ (>= 70% = ++++)
BNC1-001 (VLFPNLKTV)	++++ (>= 70% = ++++)	+ (<20% = +)
BUB1B-001 (KIVDFSYSV)	++++ (>= 70% = ++++)	++ (20%-49% = ++)
CCNB2-001 (ILVDWLVQV; listed as Homo sapiens)	++++ (>= 70% = ++++)	++ (20%-49% = ++)
CDK4-001 (TLWYRAPEV; listed as Homo sapiens)	++++ (>= 70% = ++++)	++++ (>= 70% = ++++)
CERC-001 (KLSWDLIYL; listed as Homo sapiens)	++++ (>= 70% = ++++)	+++ (50%-69% = +++)
COG4-001 (SLVAVELEKV)	++++ (>= 70% = ++++)	+ (<20% = +)
COL6A3-002 (FLLDGSANV; listed as Homo sapiens)	++++ (>= 70% = ++++)	++ (20%-49% = ++)
COL6A3-003 (NLLDLDYEL; listed as Homo sapiens)	++++ (>= 70% = ++++)	+ (<20% = +)
COL6A3-007 (FLYDVVKSL; listed as Homo sapiens)	++++ (>= 70% = ++++)	+ (<20% = +)
COL6A3-010 (KLLPYIVGV; listed as Homo sapiens)	++++ (>= 70% = ++++)	++ (20%-49% = ++)
COL12A1-002 (FLVDGSWSV; listed as Homo sapiens)	++ (20%-49% = ++)	+ (<20% = +)
CSNK2A2-001 (VLSSGLTAA; listed as Homo sapiens)	+ (<20% = +)	+ (<20% = +)
DIO2-001 (ALYDSVILL; listed as Homo sapiens)	+ (<20% = +)	+ (<20% = +)
DKC-001 (ALFQRPPLI; listed as Homo sapiens)	++++ (>= 70% = ++++)	++ (20%-49% = ++)
DONSON-001 (VLYPHEPTAV; listed as Homo sapiens)	++++ (>= 70% = ++++)	+ (<20% = +)
